Data published in paper PMC8020795 (Proceedings of the National Academy of Sciences of the …, 2021).
Entries after “also recorded” stand apart in the source; their conditions may differ.

Key:
[1] = test system: JHH-7 cells; test: Western blot of phospho-ERK and phospho-AKT after CXCL12 stimulation; type: cell-based, human; conditions: 10 µM, CXCL12 stimulation
Protocol: Western blotting was conducted by following standard procedures. HCA-1 or JHH-7 cells (10^5 cells per well) were seeded in 12-well plates (Costar, IL), incubated for 12 h and […]
containing (100 ng/mL) serum-free medium. After 24 h, the cells were lysed in RIPA buffer on ice for 30 min, and samples were collected and loaded with 4× Laemmli Sample buffer (Bio-Rad, Hercules, CA). The samples were separated on a 10% SDS-PAGE gels and transferred to PVDF membranes. After blocking with skim milk for 1 h, the membranes were incubated at 4°C overnight with primary antibodies against p -AKT, AKT, p-ERK, ERK (Cell Signaling, Danvers, MA) or β-actin (Sigma-Aldrich, St. Louis, MO) before incubation with HRP-conjugated secondary antibodies (Antibodies Inc., Davis, CA) for 1 h. […]
Total RNA was extracted from HCA-1 cells using the RNeasy Mini Kit (Qiagen, CA, USA). cDNAs were synthesized using the High-Capicity cDNA Reverse Transcription Kit […]
Biosystems, CA, USA) on a QPCR System. The comparative threshold cycle method was used to calculate fold change in gene expression, which was normalized to β-actin as a […]

[2] = in vivo; conditions: male, C57BL/6, mouse, in vivo, sc, 6 mg/kg
Protocol: Pharmacokinetics and toxicological studies
Male C57BL/6 mice, each weighing 23.4–25.4 g, were quarantined for 1 week before drug treatment. Compounds dissolved in 100% saline were individually given to mice (n = 3) subcutaneously (6 mg/kg; nonfasted mice). Blood samples were collected via cardiac puncture at defined time points (0 (immediately before dosing), 0.03, 0.08, 0.25, 0.5, 1, 2, and 4 h after dosing) and then stored at −80 °C. The volume of the dosing solution given was 100 µL for each mouse. The plasma samples were analyzed by liquid chromatography– tandem mass spectrometry (LC–MS/MS), and the data were calculated by a standard noncompartmental method using the Kinetica software program (InnaPhase). […]

[3] = test system: DEN/CCl4-induced HCC; test: DEN/CCl4-induced liver fibrosis associated HCC model; type: in vivo, C3H mice
Protocol: (§1) In vivo hepatocellular carcinoma treatment studies […]
mouse PD-1 (200 µg/mouse; BioXcell, BE0146). The therapeutic efficacy and the changes in immune cells were analyzed after two weeks of treatment. The tumor volume was calculated with the following formula: volume = width × length × height/2. The lung metastatic nodules

[4] = test system: orthotopic HCA-1 tumors; test: Orthotopic HCA-1 HCC model; type: in vivo, C3H mice; conditions: for Overall survival: n = 8
Protocol: as §1
mouse PD-1 (200 µg/mouse; BioXcell, BE0146). The therapeutic efficacy and the changes in immune cells were analyzed after two weeks of treatment. The tumor volume was calculated with the following formula: volume = width × length × height/2. […]
Hematoxylin and Eosin staining
Lung tissue was cut into small pieces and fixed in 4% PFA (in PBS) overnight before being embedded in paraffin wax. The sections were then stained with hematoxylin and eosin (H&E) and observed with an inverted microscope (IX83, Olympus, Japan).
HCA-1 tumor-bearing mice were anesthetized, perfused via intracardiac injection with PBS and then sacrificed. Tumor tissues were collected and harvested in enzyme-containing DMEM cell culture medium (1.5 mg/mL of collagenase type 1A and hyaluronidase; Sigma).
The tissues were cut and ground into smaller pieces and then digested for 1 h at 37 °C to form suspensions of single tumor cells. The suspensions were filtered through a 70-µm cell strainer (Corning, Manassas, VA), and the cells were then incubated with rat anti-mouse CD16/CD32 mAbs to block Fc receptors. After washing 3 times and resuspending in cold flow buffer (1% BSA, 0.1% NaN3 in PBS), the single-cell suspensions were incubated with monoclonal anti-mouse F4/80-PE (eBiosciences, San Diego, CA), 7-AAD, CD3e-APC, CD8a-PE-Cy7, CD45-FITC, CD4-PE (BD Biosciences, East Rutherford, NJ), CD86-APC-

[5] = target: T1, bradykinin B1 receptor (Homo sapiens, UniProt P46663); test: Off-target standard assay (radioligand binding, Eurofins Panlabs); conditions: read-out: Inhibition of bradykinin B1 receptor (B1R)
T1 construct: purchased Eurofins Panlabs, Inc (Taipei, Taiwan, ROC)
T1 sequence (P46663 1-353): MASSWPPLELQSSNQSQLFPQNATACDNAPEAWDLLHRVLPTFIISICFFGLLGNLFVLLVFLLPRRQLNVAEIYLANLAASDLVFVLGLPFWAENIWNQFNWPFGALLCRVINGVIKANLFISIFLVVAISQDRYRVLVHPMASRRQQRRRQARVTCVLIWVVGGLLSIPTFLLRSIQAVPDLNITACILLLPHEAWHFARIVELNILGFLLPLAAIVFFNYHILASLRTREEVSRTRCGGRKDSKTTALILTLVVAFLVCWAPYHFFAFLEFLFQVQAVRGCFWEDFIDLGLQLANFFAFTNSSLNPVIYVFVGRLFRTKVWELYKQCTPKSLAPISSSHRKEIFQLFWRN
From the text: (§2) Table: List of genes examined by real-time PCR and the primer sequences used.
(§3) Genes Forward primers Reverse primers […]
(§4) Vim 5’-[…]-3’ 5’-[…]-3’ […]
(§5) Zeb2 5’-[…]-3’ 5’-[…]-3’
(§6) Twist1 5’-[…]-3’ 5’-[…]-3’
(§7) Cdh1 5’-[…]-3’ 5’-[…]-3’
(§8) Mta3 5’-[…]-3’ 5’-[…]-3’ […]
(§9) Off-target standard assays
(§10) Methods employed in this study have been adapted from the scientific literature to […]
(§11) maximize reliability and reproducibility. Reference standards were run as an integral part of […]
(§12) each assay to ensure the validity of the results obtained. Radioligand binding Assays were […]
(§13) performed under conditions described in the accompanying "Methods" section of this report […]
(§14) by Eurofins Panlabs, Inc (Taipei, Taiwan, ROC).
(§15) BPRCX807 were tested in the hERG (hERG-CHO, automated patch-clamp) assay and determined at Eurofins Panlabs (Missouri, USA). The experiment was accepted in accordance with Eurofins validation Standard Operating Procedure.
(§16) Selectivity Screening of various chemokine receptors
(§17) The results were performed by Eurofins DiscoverX (Fremont, California, USA). The

[6] = target: T2, dopamine D3 receptor (Homo sapiens, UniProt P35462); test: as above; conditions: read-out: Inhibition of dopamine D3 receptor (D3R)
T2 construct: purchased Eurofins Panlabs, Inc (Taipei, Taiwan, ROC)
From the text: as §2, §3, §4, §5, §6, §7, §8, §9, §10, §11, §12, §13, §14, §15, §16, §17

[7] = alone or combined with sorafenib

T2 sequence (P35462 whole entry, species assumed): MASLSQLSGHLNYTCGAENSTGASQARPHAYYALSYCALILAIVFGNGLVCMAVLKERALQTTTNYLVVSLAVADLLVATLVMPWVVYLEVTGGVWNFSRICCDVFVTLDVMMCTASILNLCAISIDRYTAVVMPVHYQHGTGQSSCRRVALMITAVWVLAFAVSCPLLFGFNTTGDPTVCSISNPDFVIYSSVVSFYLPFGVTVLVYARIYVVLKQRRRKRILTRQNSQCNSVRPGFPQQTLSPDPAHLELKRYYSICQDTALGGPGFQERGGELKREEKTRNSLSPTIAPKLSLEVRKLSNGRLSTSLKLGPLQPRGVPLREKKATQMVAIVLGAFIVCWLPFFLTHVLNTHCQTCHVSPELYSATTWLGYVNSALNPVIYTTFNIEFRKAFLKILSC

Cc1cc(NC2CCN(C(=O)CCNCC(=O)O)CC2)nc(NCc2nc(CCCNCCCNC3CCCCC3)co2)n1 [BPRCX807]
CXCR4/CXCL12-triggered ERK and Akt activation [1]: suppress CXCR4/CXCL12-triggered ERK and Akt activation more significantly than its counterparts | AUC(0-t) [2]: 16500 ng·h/mL | Cmax [2]: 18800 ng/mL | half-life [2]: 1 h | Tumors in fibrotic liver ([3]; combination with anti–PD-1, BPRCX807 15 mg/kg/d SC minipump weeks 25 to 28): remarkably suppressed | Tumor size ([3]; combination with sorafenib): significantly reduce tumor size more efficiently than sorafenib alone | Lung metastasis (number of lung nodules) ([4]; BPRCX807 combined with sorafenib, day 24): significantly suppress lung metastasis | Proportion of M1-like CD86+ TAMs in tumors [4, 7]: increasing the proportion | Proportion of M2-like CD206+ TAMs in tumors [4, 7]: decreasing | Tumor size reduction vs. control ([4]; combination of BPRCX807 (15 mg/kg/d SC) with anti–PD-1 (200 μg/mouse IP), day 24): more than 95% | Lung metastasis ([4]; combination with anti–PD-1): significantly prevented | Overall survival ([4]; combination with anti–PD-1 vs either alone): significantly prolonged | Tumor volume reduction ([4]; combination with sorafenib (40 mg/kg/d, oral), BPRCX807 15 mg/kg/d SC minipump): roughly 85% | Overall survival ([4]; combination with sorafenib vs BPRCX807 (P = 0.0123) or sorafenib (P = 0.0053) alone): significantly extended | F4/80+ TAMs infiltration into tumor (flow cytometry) ([4]; treatment alone): significantly decreased | CD8+ T cell infiltration into tumors ([4]; treatment alone, compared to no treatment): moderately increased | Intratumoral mean vessel density (MVD, CD31+ staining) ([4]; treatment alone, day 24): significantly decrease intratumoral MVD | Lung metastasis (number of lung nodules) ([4]; treatment alone, day 24): reduced; also recorded: significantly suppress lung metastasis | Tumor growth ([4]; treatment alone, immunotherapy study, day 24): moderately inhibiting tumor growth | inhibition at 10 µM [5]: 62% | inhibition at 10 µM [6]: 58%
